Source: US9868766B2, “Peptides as oxytocin agonists” (Hoffmann-La Roche Inc., priority 2012, dated 2018)
Positions of bridges follow the written chain, without caps; N, C: chain ends. Non-standard residues stand in square brackets, D forms with d. Residues, ends and D or L forms follow the SMILES beside them. Pro(trans-4-F) = O=C(O)[C@@H]1C[C@@H](F)CN1; Gly(octyl) = CCCCCCCC[C@H](N)C(=O)O; d(aIle) = CC[C@H](C)[C@@H](N)C(=O)O; Aoc(2) = CCCCCC[C@H](N)C(=O)O; αMeL = CC(C)C[C@](C)(N)C(=O)O; Chg = N[C@H](C(=O)O)C1CCCCC1; hLeu = CC(C)CC[C@H](N)C(=O)O; Ac5c = NC1(C(=O)O)CCCC1; Dap = NC[C@H](N)C(=O)O; Sar = CNCC(=O)O

Molecular target: T1, human Oxytocin (OTR) receptor (Homo sapiens, UniProt P30559)
T1 construct: expressed in transfected cells
T1 sequence (P30559 1-389): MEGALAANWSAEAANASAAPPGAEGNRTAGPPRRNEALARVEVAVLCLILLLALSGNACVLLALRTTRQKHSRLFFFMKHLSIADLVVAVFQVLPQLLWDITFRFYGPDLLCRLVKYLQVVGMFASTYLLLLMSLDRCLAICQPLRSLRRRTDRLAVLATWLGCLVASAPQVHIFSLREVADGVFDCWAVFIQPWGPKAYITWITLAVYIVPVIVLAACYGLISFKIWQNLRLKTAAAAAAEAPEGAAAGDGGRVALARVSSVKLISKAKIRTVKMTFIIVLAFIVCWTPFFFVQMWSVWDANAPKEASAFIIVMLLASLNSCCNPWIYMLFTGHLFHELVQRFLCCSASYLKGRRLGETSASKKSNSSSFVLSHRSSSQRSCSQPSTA
Test: Calcium flux assay (FLIPR), agonist mode, CHO cells expressing human OTR
Format: cell-based
Conditions: for EC50: CHO cells stably expressing human OTR, calcium flux, read-out: hOT EC50; for hOT efficacy (%) / Emax: maximum response normalized to endogenous full agonist = 100%; for Emax: CHO, read-out: hOT efficacy (%)
Source text: Chines Hamster Ovary (CHO) cells were transfected with expression plasmids encoding either the human V1a, the human Oxytocin (OTR) or the humanV2 receptor, the later in combination with the chimeric Gqs5 G protein to redirect the signal to Calcium flux. Stable cells were cloned by limiting dilution to yield monoclonal cell lines expressing either human V1a, human V2+Gqs5 or human OTR receptors and selected based on functional responses detected on a fluorometric imaging plate reader (FLIPR) detecting Calcium flux in the cell after receptor activation.
On the afternoon before the assay, cells were plated at a density of 50,000 cells/well into black 96 well plates with clear bottoms to allow cell inspection and fluorescence measurements from the bottom of each well. The density of cells was sufficient to yield a confluent monolayer the next day. Hanks balanced salt solution, without phenol red, containing 20 mM HEPES (pH 7.3) and 2.5 mM probenecid (assay buffer) was prepared fresh for each experiment. Compound dilutions were made using a Beckman Biomek 2000 laboratory automation workstation, in assay buffer containing 1% DMSO. The dye-loading buffer consisted of a final concentration of 2 μM Fluo-4-AM (dissolved in DMSO and pluronic acid) in assay buffer. […] Once dye-loaded, the cells were washed thoroughly on an Embla cell washer with the assay buffer to remove any unincorporated dye. Exactly 100 μl assay buffer was left in each well.
Each 96 well plate containing dye-loaded cells was placed into the FLIPR machine and the laser intensity set to a suitable level to detect low basal fluorescence. To test compounds as agonists, 25 μl diluted compound was added to the plate 10 seconds into the fluorescent measurements and fluorescent response was recorded for 5 minutes. The fluorescence data was normalized to the endogenous full agonist dose-response set at 100% for the maximum response and 0% for the minimum. […] The concentration of agonist that produced a half-maximal response is represented by the EC50 value, the logarithm of which yielded the pEC50 value.

## CC[C@H](C)[C@@H]1NC(=O)[C@H](Cc2ccc(O)cc2)NC(=O)CNC(=O)CC[C@@H](C(=O)N(C)CC(=O)N[C@@H](CC(C)C)C(=O)NCC(N)=O)NC(=O)[C@H](CC(N)=O)NC(=O)[C@H](C(C)C)NC1=O [Example 55] (GYIVNE[Sar]LG-NH2; lactam N-6)
  EC50: 20 nM
  hOT efficacy (%): 104%

## CC[C@H](C)[C@@H]1NC(=O)[C@H](Cc2ccc(O)cc2)NC(=O)CNC(=O)CC[C@@H](C(=O)N(C)CC(=O)N[C@@H](CC(C)C)C(=O)NCC(N)=O)NC(=O)[C@H](CC(N)=O)NC(=O)[C@H](CO)NC1=O [Example 52] (GYISNE[Sar]LG-NH2; lactam N-6)
  EC50: 4.3 nM
  Emax: 121%

## CC[C@H](C)[C@@H]1NC(=O)[C@H](Cc2ccc(O)cc2)NC(=O)CNC(=O)CC[C@@H](C(=O)N(C)CC(=O)N[C@@H](CC(C)C)C(=O)NCC(N)=O)NC(=O)[C@H](CC(N)=O)NC(=O)[C@H](C)NC1=O [Example 37] (GYIANE[Sar]LG-NH2; lactam N-6)
  EC50: 4 nM
  Emax: 137%

## CC[C@H](C)[C@@H]1NC(=O)[C@H](Cc2ccc(O)cc2)NC(=O)CNC(=O)CC[C@H](C(=O)N2CCC[C@H]2C(=O)N[C@@H](CC(C)C)C(=O)NCC(N)=O)NC(=O)[C@H](CC(N)=O)NC(=O)[C@H](CCC(N)=O)NC1=O [Example 14] (GYIQN[dE]PLG-NH2; lactam N-6)
  EC50: 250 nM
  hOT efficacy (%): 92%

## CC[C@H](C)[C@H]1NC(=O)[C@H](Cc2ccc(O)cc2)NC(=O)CNC(=O)CC[C@@H](C(=O)N2CCC[C@H]2C(=O)N[C@@H](CC(C)C)C(=O)NCC(N)=O)NC(=O)[C@H](CC(N)=O)NC(=O)[C@H](CCC(N)=O)NC1=O [Example 22] (GY[d(aIle)]QNEPLG-NH2; lactam N-6)
  EC50: 98 nM
  hOT efficacy (%): 116%

## CC[C@H](C)[C@@H]1NC(=O)[C@H](Cc2ccc(O)cc2)NC(=O)[C@H](C)NC(=O)CC[C@@H](C(=O)N2CCC[C@H]2C(=O)N[C@@H](CC(C)C)C(=O)NCC(N)=O)NC(=O)[C@H](CC(N)=O)NC(=O)[C@H](CCC(N)=O)NC1=O [Example 3] (AYIQNEPLG-NH2; lactam N-6)
  EC50: 4 nM
  hOT efficacy (%): 94%

## CC[C@H](C)[C@@H]1NC(=O)[C@H](Cc2ccc(O)cc2)NC(=O)CNC(=O)CC[C@@H](C(=O)N2CCC[C@@H]2C(=O)N[C@@H](CC(C)C)C(=O)NCC(N)=O)NC(=O)[C@H](CC(N)=O)NC(=O)[C@H](CCC(N)=O)NC1=O [Example 23] (GYIQNE[dP]LG-NH2; lactam N-6)
  EC50: 88 nM
  hOT efficacy (%): 64%

## CC[C@H](C)[C@@H]1NC(=O)[C@H](Cc2ccc(O)cc2)NC(=O)CNC(=O)CC[C@@H](C(=O)N(C)CC(=O)NC2(C(=O)NCC(N)=O)CCCC2)NC(=O)[C@H](CC(N)=O)NC(=O)[C@H](CCC(N)=O)NC1=O [Example 48] (GYIQNE[Sar][Ac5c]G-NH2; lactam N-6)
  EC50: 3.6 nM
  Emax: 108%

## CC[C@H](C)[C@@H]1NC(=O)[C@H](Cc2ccc(O)cc2)NC(=O)CNC(=O)CC[C@@H](C(=O)N2C[C@H](F)C[C@H]2C(=O)N[C@@H](CC(C)C)C(=O)NCC(N)=O)NC(=O)[C@H](CC(N)=O)NC(=O)[C@H](CCC(N)=O)NC1=O [Example 46] (GYIQNE[Pro(trans-4-F)]LG-NH2; lactam N-6)
  EC50: 10 nM
  hOT efficacy (%): 104%

## CC(C)C[C@@H]1NC(=O)[C@H](Cc2ccc(O)cc2)NC(=O)CNC(=O)CC[C@@H](C(=O)N2CCC[C@H]2C(=O)N[C@@H](CC(C)C)C(=O)NCC(N)=O)NC(=O)[C@H](CC(N)=O)NC(=O)[C@H](CCC(N)=O)NC1=O [Example 8] (GYLQNEPLG-NH2; lactam N-6)
  EC50: 100 nM
  hOT efficacy (%): 92%

## CCCCCC[C@H](NC(=O)CN(C)C(=O)[C@@H]1CCC(=O)NCC(=O)N[C@@H](Cc2ccc(O)cc2)C(=O)N[C@@H]([C@@H](C)CC)C(=O)N[C@@H](CCC(N)=O)C(=O)N[C@@H](CC(N)=O)C(=O)N1)C(=O)NCC(N)=O [Example 53] (GYIQNE[Sar][Aoc(2)]G-NH2; lactam N-6)
  EC50: 1.1 nM
  Emax: 127%

## CC[C@H](C)[C@@H]1NC(=O)[C@H](Cc2ccc(O)cc2)NC(=O)CNC(=O)CC[C@@H](C(=O)N(C)CC(=O)N[C@@H](CCC(C)C)C(=O)NCC(N)=O)NC(=O)[C@H](CC(N)=O)NC(=O)[C@H](CCC(N)=O)NC1=O [Example 43] (GYIQNE[Sar][hLeu]G-NH2; lactam N-6)
  EC50: 26 nM
  hOT efficacy (%): 124%

## CCCCCCCC[C@H](NC(=O)CN(C)C(=O)[C@@H]1CCC(=O)NCC(=O)N[C@@H](Cc2ccc(O)cc2)C(=O)N[C@@H]([C@@H](C)CC)C(=O)N[C@@H](CCC(N)=O)C(=O)N[C@@H](CC(N)=O)C(=O)N1)C(=O)NCC(N)=O [Example 54] (GYIQNE[Sar][Gly(octyl)]G-NH2; lactam N-6)
  EC50: 0.8 nM
  Emax: 134%

## CC[C@H](C)[C@@H]1NC(=O)[C@H](Cc2ccc(O)cc2)NC(=O)CNC(=O)CC[C@@H](C(=O)N(C)CC(=O)N[C@H](C(=O)NCC(N)=O)C2CCCCC2)NC(=O)[C@H](CC(N)=O)NC(=O)[C@H](CCC(N)=O)NC1=O [Example 41] (GYIQNE[Sar][Chg]G-NH2; lactam N-6)
  EC50: 69 nM
  hOT efficacy (%): 117%

## CC[C@H](C)[C@@H]1NC(=O)[C@H](Cc2ccc(O)cc2)NC(=O)CN(C)C(=O)CC[C@@H](C(=O)N2CCC[C@H]2C(=O)N[C@@H](CC(C)C)C(=O)NCC(N)=O)NC(=O)[C@H](CC(N)=O)NC(=O)[C@H](CCC(N)=O)NC1=O [Example 12] ([Sar]YIQNEPLG-NH2; lactam N-6)
  EC50: 48 nM
  hOT efficacy (%): 82%

## CC[C@H](C)[C@@H]1NC(=O)[C@H](Cc2ccc(O)cc2)NC(=O)CNC(=O)CC[C@@H](C(=O)N2CCC[C@H]2C(=O)NCC(=O)NCC(N)=O)NC(=O)[C@H](CC(N)=O)NC(=O)[C@H](CCC(N)=O)NC1=O [Example 7] (GYIQNEPGG-NH2; lactam N-6)
  EC50: 124 nM
  hOT efficacy (%): 87%

## CC[C@H](C)[C@@H]1NC(=O)[C@H](Cc2ccc(O)cc2)NC(=O)CNC(=O)CC[C@@H](C(=O)N2CCC[C@H]2C(=O)N[C@@](C)(CC(C)C)C(=O)NCC(N)=O)NC(=O)[C@H](CC(N)=O)NC(=O)[C@H](CCC(N)=O)NC1=O [Example 36] (GYIQNEP[αMeL]G-NH2; lactam N-6)
  EC50: 41 nM
  hOT efficacy (%): 138%

## CC[C@H](C)[C@@H]1NC(=O)[C@H](Cc2ccc(O)cc2)NC(=O)CNC(=O)CC[C@@H](C(=O)N2CCC[C@H]2C(=O)N[C@@H](CC(C)C)C(=O)NCC(N)=O)NC(=O)[C@H](CC(N)=O)NC(=O)[C@H](Cc2cnc[nH]2)NC1=O [Example 9] (GYIHNEPLG-NH2; lactam N-6)
  EC50: 118 nM
  hOT efficacy (%): 93%

## CC[C@H](C)[C@@H]1NC(=O)[C@H](Cc2ccc(O)cc2)NC(=O)CNC(=O)CC[C@@H](C(=O)N(C)CC(=O)N[C@@H](CN)C(=O)NCC(N)=O)NC(=O)[C@H](CC(N)=O)NC(=O)[C@H](CCC(N)=O)NC1=O [Example 42] (GYIQNE[Sar][Dap]G-NH2; lactam N-6)
  EC50: 1 nM
  Emax: 119%
